In one experiment the target is T1, TNAP (Homo sapiens, UniProt P05186).
T1 sequence (P05186 18-502 limits assumed): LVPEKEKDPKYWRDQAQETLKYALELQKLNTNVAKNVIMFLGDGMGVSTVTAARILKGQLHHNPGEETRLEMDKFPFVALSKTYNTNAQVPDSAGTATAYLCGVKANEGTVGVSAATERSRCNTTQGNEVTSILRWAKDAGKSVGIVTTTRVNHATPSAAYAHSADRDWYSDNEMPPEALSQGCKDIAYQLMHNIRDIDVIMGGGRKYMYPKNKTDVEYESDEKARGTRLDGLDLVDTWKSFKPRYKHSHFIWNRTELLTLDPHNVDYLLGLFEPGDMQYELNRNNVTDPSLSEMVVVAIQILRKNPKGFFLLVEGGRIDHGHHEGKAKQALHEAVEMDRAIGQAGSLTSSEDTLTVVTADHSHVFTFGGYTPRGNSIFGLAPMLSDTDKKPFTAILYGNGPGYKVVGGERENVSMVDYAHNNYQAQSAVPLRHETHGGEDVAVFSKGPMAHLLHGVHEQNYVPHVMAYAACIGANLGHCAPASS
Kind of experiment: luminescent CDP-star-based TNAP assay, MLSMR screen (PubChem AID 518). Particulars: Table 1.
Excerpt: To address this issue, a TNAP assay was developed. This assay is based on the dephosphorylation of a CDP-star® alkaline phosphatase substrate (New England Biolabs, Inc.) designed to detect alkaline phosphatase in blotting techniques (FIG. 6). As with many chemiluminescent reactions, the dioxetane-based reaction represents a sequence of several steps. Dioxetane-phosphate is dephosphorylated by an alkaline phosphatase leading to the generation of an unstable product that decomposes to a stable product with concomitant light production. Once the steady-state of the overall reaction is achieved (in the current reaction it happens within the first 5 min), the luminescence signal output is stable over several hours. As an added bonus, the light intensity of the chemiluminescent reaction is directly proportional to the rate of the TNAP reaction; therefore, the activity of the enzyme can be reliably measured in real-time.
In this table, the column corresponding to TNAP (luminescence) was calculated as (100−X)/100, where X is % inhibition. In some aspects, TNAP activation fact refers to the fold increase in TNAP activity. There are two tiers of data confirmation embedded in the data.
For `O=C(CN1C(=O)CCC1=O)Nc1nc(-c2ccccn2)cs1` [drawing 29, 2-(2,5-dioxopyrrolidin-1-yl)-N-[4-(pyridine-2-yl)thiazol-2-yl]acetamide], the TNAP Activation Factor turned out to be 2.0.

The experiment is the same for the next values; noted with them: Table 2.
`CC(C)n1c(NCc2nc3ccccc3n2C)nc2ccccc21` [drawing 45, 1-isopropyl-N-[(1-methyl-1H-benzo[d]imidazol-2-yl)methyl]-1H-benzo[d]imidazol-2-amine] registered a TNAP Activation Factor of 2.0. As to `Nc1[nH]nc2nc(NCc3ccccc3)c3c(c12)CCN(Cc1ccccc1)C3` [drawing 47, N^5,7-dibenzyl-6,7,8,9-tetrahydro-2H-pyrazolo[3,4-c][2,7]napythyridine-1,5-diamine], the TNAP Activation Factor came to 1.9.

Staying with this experiment, now noted: Table 3.
`OCCN(CCO)c1nc(N2CCCCC2)c2nc(N(CCO)CCO)nc(N3CCCCC3)c2n1` [2,2′,2″,2′″-[4,8-di(piperidin-1-yl)pyrimido[5,4-d]pyrimidine-2,6-diyl]bis(azanetriyl)tetraethanol]: the TNAP Activation Factor stood at 1.6. Same read-out and setting: the same measure for `c1nc(-c2[nH]nc3c2CCC3)n2nc(C3CCCCC3)sc12` [6-cyclohexyl-3-(2,4,5,6-tetrahydrocyclopenta[c]pyrazol-3-yl)-[1,2,4]triazole[3,4-b][1,3,4]thiadiazole]: 1.5. On the same count and under the same terms, the same measure for `N=c1c2c(-c3ccccc3)c(-c3ccccc3)n(Cc3ccccc3)c2ncn1CCCn1ccnc1` [drawing 64, 3-[3-(1H-imidazol-1-yl)propyl]-7-benzyl-5,6-diphenyl-3H-pyrrolo[2,3-d]pyrimidin-4(7H)-imine]: 4.3. Molecule `Cc1cc(C2N=C(N)Nc3nc4ccccc4n32)c(C)n1-c1ccccc1Cl` (centres unmarked) [drawing 66] displayed a TNAP Activation Factor of 2.2. Molecule `Cc1nn2c(O)cc(C(C)(C)C)nc2c1-c1ccccc1` [drawing 67, 5-tert-butyl-2-methyl-3-phenylpyrazolo[1,5-a]pyrimidin-7-ol] returned a TNAP Activation Factor of 1.8. The same measure, in the same setting: the same measure for `Oc1c(C(c2ccccn2)N2CCOCC2)ccc2cccnc12` (centres unmarked) [drawing 68, 7-[morpholino(pyridin-2-yl)methyl]quinolin-8-ol]: 1.7; for `OCCCN1c2ccccc2Nc2nnc(-c3ccccc3)cc21` [drawing 70, 3-(3-phenylpyridazino[3,4-b]quinoxalin-5(10H)-yl)propan-1-ol]: 1.5; for `NC1=NC(c2cn(-c3ccccc3)nc2-c2cccs2)n2c(nc3ccccc32)N1` (centres unmarked) [drawing 72]: 1.5.

`OCCN1CCOCCN(CCO)CCN(CCO)CC1` [drawing 74, 2,2′,2″-(1-oxa-4,7,10-triazacyclododecane-4,7,10-triyl)ethanol] returned a TNAP Activation Factor of 1.9. In turn, `COc1ccc(CCNC(=O)c2cc(-c3ccccc3O)[nH]n2)cc1OC` [drawing 75, N-(3,4-dimethoxyphenethyl)-5-(2-hydroxyphenyl)-1H-pyrazole-3-carboxamide] came in with a TNAP Activation Factor of 1.9. The same measure, in the same setting: the same measure for `O=C(CN(Cc1ccco1)C(=O)CNS(=O)(=O)c1ccc(F)cc1)NCc1ccc(F)cc1` [drawing 76, N-[2-(4-fluorobenzylamino)-2-oxoethyl]-2-(4-fluorphenylsulfonamido)-N-(furan-2-ylmethyl)acetamide]: 1.7.

The experiment is the same for the next values; noted with them: calculated as (100-X)/100, where X is % inhibition; luminescence.
Turning to `N=c1c2c(-c3ccccc3)c(-c3ccccc3)n(Cc3ccccc3)c2ncn1CCCn1ccnc1` [Compound 3], the “TNAP Activation Factor” value is 4.3.

Take `CCN(CC)c1ccc2cc(-c3nc4ccccc4n3C)c(=O)oc2c1` [Compound 4]: the “TNAP Activation Factor” value is 2.8. `Cc1cc(C2N=C(N)Nc3nc4ccccc4n32)c(C)n1-c1ccccc1Cl` (centres unmarked) [Compound 6]: the “TNAP Activation Factor” value is 2.2.

In the case of `CC(C)n1c(NCc2nc3ccccc3n2C)nc2ccccc21` [Compound 7], the “TNAP Activation Factor” value is 2.0. As to `O=C(CN1C(=O)CCC1=O)Nc1nc(-c2ccccn2)cs1` [Compound 9], the “TNAP Activation Factor” value is 2.0.

As to `OCCN1CCOCCN(CCO)CCN(CCO)CC1` [Compound 10], the “TNAP Activation Factor” value is given as 1.9. The same measure, in the same setting: the same measure for `Nc1[nH]nc2nc(NCc3ccccc3)c3c(c12)CCN(Cc1ccccc1)C3` [Compound 11]: 1.9. With `COc1ccc(CCNC(=O)c2cc(-c3ccccc3O)[nH]n2)cc1OC` [Compound 12], the “TNAP Activation Factor” value is given as 1.9. As to `Cc1nn2c(O)cc(C(C)(C)C)nc2c1-c1ccccc1` [Compound 13], the “TNAP Activation Factor” value is recorded as 1.8.

Turning to `Oc1c(C(c2ccccn2)N2CCOCC2)ccc2cccnc12` (centres unmarked) [Compound 15], the “TNAP Activation Factor” value is 1.7. Same read-out and setting: the same measure for `O=C(CN(Cc1ccco1)C(=O)CNS(=O)(=O)c1ccc(F)cc1)NCc1ccc(F)cc1` [Compound 16]: 1.7; for `Clc1ccc(COC(Cn2ccnc2)c2ccc(Cl)cc2Cl)c(Cl)c1` (centres unmarked) [Compound 17]: 1.7. On the same count and under the same terms, the same measure for `OCCN(CCO)c1cc2c(N3CCCCC3)nc(N(CCO)CCO)nc2c(N2CCCCC2)n1` [Compound 18]: 1.6; for `O=C(Nc1cccc(OC(F)(F)F)c1)c1ccc(Br)o1` [Compound 19]: 1.6. Turning to `NC1=NC2(CCC(c3ccccc3)CC2)n2c(nc3ccccc32)N1` (centres unmarked) [Compound 20], the “TNAP Activation Factor” value is given as 1.6. On to `O=S(=O)(CCc1ncc(-c2ccccc2)o1)c1ccc2ccccc2c1` [Compound 21], for which the “TNAP Activation Factor” value was 1.6.

For `CCc1ccc(-c2nc(CN3CCC(C(=O)NCCN(CC)c4ccccc4)CC3)c(C)o2)cc1` [Compound 22], the “TNAP Activation Factor” value is given as 1.6. Take `COc1cccc(N(C(=O)c2cc[nH]n2)C2(C(=O)Nc3c(C)cccc3C)CCCCC2)c1` [Compound 23]: the “TNAP Activation Factor” value is given as 1.6. For `OCCCN1c2ccccc2Nc2nnc(-c3ccccc3)cc21` [Compound 25], the “TNAP Activation Factor” value is 1.5. Still for that read-out and setting: the same measure for `C1CCC(c2nn3c(-c4[nH]nc5c4CCC5)nnc3s2)CC1` [Compound 26]: 1.5; for `NC1=NC(c2cn(-c3ccccc3)nc2-c2cccs2)n2c(nc3ccccc32)N1` (centres unmarked) [Compound 28]: 1.5.

The target in another experiment is T1, TNAP. The experiment can be described thus: optimized TNAP activation assay, CAPS buffer pH 9.8, CDP-Star luminescence. Type of experiment: biochemical. The note with it: TNAP 1/800, 25 μM CDP-Star, pH 9.8. As for the experimental part:
The activity of TNAP (1/800) was measured in 50 mM CAPS, pH 9.8, containing 1 mM MgCl2, 20 uM ZnCl2 and varied concentrations of CDP-Star. The luminescence signal was obtained using 384-well white small-volume plates (Greiner 784075) on a PE Envision plate reader. Experimental data were analyzed using the Michaelis-Menten equation.
The activity of TNAP (1/800) was measured in 50 mM CAPS, pH 9.8, containing 1 mM MgCl2, 20 μM ZnCl2 and 25 μM CDP-Star® in the presence of serially diluted DEA, pH adjusted to 9.8. The luminescence signal, obtained using 384-well white small-volume plate (Greiner 784075) on a PE Envision plate reader, was fitted to 4-parameter sigmoidal equation. The best-fit curve is shown as a solid line.
The luminescent assay was further optimized to ensure its maximum sensitivity to compounds activating TNAP. […] This assay can provide a more accurate measure of phosphatase activity, as opposed to transphosphorylation, activity that might be more relevant to in vivo conditions. The previously utilized assay was performed in the presence DEA at a concentration of CDP-star equal to its Km value. However, the appropriate concentration of the components was needed for the new buffer. TNAP activity vs. its concentration was tested as a function of TNAP concentrations (FIG. 7).
It was observed that TNAP activity was linearly dependent over an extended range of TNAP concentrations. A 1/800 concentration of TNAP was used for further work; this concentration is 1315-fold above the limit of detection of the assay. To ensure that substrate concentration is correctly adjusted in the new assay, TNAP activity was tested in the presence of varied CDP-star® concentrations (FIG. 8). It was decided to fix the concentration of CDP-star® at 25 uM (˜Km) to provide enough sensitivity even for compounds competitive with the CDP-star® substrate. In the next experiment, the activation of TNAP was tested with DEA (FIG. 9).
600 mM DEA (pH 9.8) was chosen as the positive control for TNAP activation screening. […]
`OCCNCCO` [DEA, diethanolamine]: the “Maximal activation, higher activity than in the absence of DEA” value worked out at 9.4 fold.

The experiment is the same for the next values; noted with them: TNAP 1/800, 50 mM CAPS pH 9.8, Michaelis-Menten.
A word on the Km: it is the concentration of substrate that gives half-maximal velocity. For the molecule `COC1(c2ccc(Cl)c(OP(=O)([O-])[O-])c2)OOC12C1CC3CC2CC(Cl)(C3)C1.[Na+].[Na+]` (centres unmarked) [CDP-star, Disodium 2-chloro-5-(4-methoxyspiro{1,2-dioxetane-3,2′-(5′-chloro)-ricyclo[3.3.1.13,7]decan}-4-yl)-1-phenyl phosphate], the Km amounted to 21.9 ± 3.4 µM and the Vmax came out at 10300±408 RLU.

The record behind these values is patent US20090053192A1, “TISSUE-NONSPECIFIC ALKALINE PHOSPHATASE (TNAP) ACTIVATORS AND USES THEREOF” (BURNHAM INSTITUTE FOR MEDICAL RESEARCH, priority 2007, published 2009).
